Experiments:
Test in all cases: relative viability (nuclei count vs DMSO), 5 days (fraction); higher = more cells survive
[1] = compound: CO[C@H]1C[C@@H]2CC[C@@H](C)[C@@](O)(O2)C(=O)C(=O)N2CCCC[C@H]2C(=O)O[C@H]([C@H](C)C[C@@H]2CC[C@@H](OCCO)[C@H](OC)C2)CC(=O)[C@H](C)/C=C(\C)[C@@H](O)[C@@H](OC)C(=O)[C@H](C)C[C@H](C)/C=C/C=C/C=C/1C [Everolimus]
Outline: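 Lung cancer cell lines were seeded into 1536-well plates, kept overnight at 37 °C and pinned with five library-drug doses (not always all listed) spaced by √10. After 5 days, nuclei were Hoechst-stained, imaged at 4× and counted with MetaXpress. Viability is treated-well nuclei over vehicle-well nuclei, taken as a median across plates. Plates needed control CV below 25% and at least one doubling.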

[2] = compound: CO[C@H]1C[C@@H]2CC[C@@H](C)[C@@](O)(O2)C(=O)C(=O)N2CCCC[C@H]2C(=O)O[C@H]([C@H](C)C[C@@H]2CC[C@@H](OCCO)[C@H](OC)C2)CC(=O)[C@H](C)/C=C(\C)[C@@H](O)[C@@H](OC)C(=O)[C@H](C)C[C@H](C)/C=C/C=C/C=C/1C [Everolimus] + Cc1cc(Nc2cc(N3CCN(C)CC3)nc(Sc3ccc(NC(=O)C4CC4)cc3)n2)n[nH]1 [Tozasertib] (partner 0.1 µM)
Outline: (§1)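 Five library-drug doses in √10 steps were combined with a fixed anchor-drug dose, or a single drug was given alone, by pin tool to lung cancer cell lines in 1536-well plates the day after seeding. Nuclei were stained and counted after 5 days. Relative viability is the nuclei count in treated wells over that in vehicle wells, taken as the median of duplicate plates.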

[3] = compound: CO[C@H]1C[C@@H]2CC[C@@H](C)[C@@](O)(O2)C(=O)C(=O)N2CCCC[C@H]2C(=O)O[C@H]([C@H](C)C[C@@H]2CC[C@@H](OCCO)[C@H](OC)C2)CC(=O)[C@H](C)/C=C(\C)[C@@H](O)[C@@H](OC)C(=O)[C@H](C)C[C@H](C)/C=C/C=C/C=C/1C [Everolimus] + CC1(C)CCC(c2ccc(Cl)cc2)=C(CN2CCN(c3ccc(C(=O)NS(=O)(=O)c4ccc(N[C@H](CCN5CCOCC5)CSc5ccccc5)c(S(=O)(=O)C(F)(F)F)c4)cc3)CC2)C1 [Navitoclax] (partner 0.5 µM)
Outline: as §1

[4] = compound: CO[C@H]1C[C@@H]2CC[C@@H](C)[C@@](O)(O2)C(=O)C(=O)N2CCCC[C@H]2C(=O)O[C@H]([C@H](C)C[C@@H]2CC[C@@H](OCCO)[C@H](OC)C2)CC(=O)[C@H](C)/C=C(\C)[C@@H](O)[C@@H](OC)C(=O)[C@H](C)C[C@H](C)/C=C/C=C/C=C/1C [Everolimus] + N=C(N)NC(=N)NCCc1ccccc1 [Phenformin] (partner 250 µM)
Outline: as §1

| Cell Line | relative viability ([1]; 0.01 µM) | relative viability ([1]; 0.03162 µM) | relative viability ([1]; 0.1 µM) | relative viability ([1]; 0.3162 µM) | relative viability ([1]; 1 µM) | relative viability ([2]; first compound 0.01 µM) | relative viability ([2]; first compound 0.03162 µM) | relative viability ([2]; first compound 0.1 µM) | relative viability ([2]; first compound 0.3162 µM) | relative viability ([2]; first compound 1 µM) | relative viability ([3]; first compound 0.01 µM) | relative viability ([3]; first compound 0.03162 µM) | relative viability ([3]; first compound 0.1 µM) | relative viability ([3]; first compound 0.3162 µM) | relative viability ([3]; first compound 1 µM) | relative viability ([4]; first compound 0.01 µM) | relative viability ([4]; first compound 0.03162 µM) | relative viability ([4]; first compound 0.3162 µM) | relative viability ([4]; first compound 1 µM) | relative viability ([4]; first compound 0.1 µM) |
| --- | --- | --- | --- | --- | --- | --- | --- | --- | --- | --- | --- | --- | --- | --- | --- | --- | --- | --- | --- | --- |
| NCI-H727 | 0.67 | 0.537 | 0.518 | 0.608 | 0.552 | 0.525 | 0.562 | 0.505 | 0.713 | 0.53 | 0.263 | 0.211 | 0.179 | 0.231 | 0.208 | 0.462 | 0.457 | 0.485 | 0.368 | – |
| NCI-H838 | 0.603 | 0.561 | 0.468 | 0.516 | 0.51 | 0.266 | 0.258 | 0.27 | 0.237 | 0.245 | 0.57 | 0.54 | 0.499 | 0.588 | 0.495 | 0.331 | 0.355 | 0.313 | 0.363 | 0.267 |
| NCI-H1355 | 0.666 | 0.537 | 0.552 | 0.628 | 0.48 | 0.497 | 0.398 | 0.355 | 0.413 | 0.32 | 0.541 | 0.415 | 0.349 | 0.394 | 0.377 | 0.394 | 0.364 | 0.332 | 0.345 | 0.335 |
| NCI-H1395 | 0.765 | 0.627 | 0.683 | 0.647 | 0.727 | 0.56 | 0.56 | 0.493 | 0.523 | 0.507 | 1.06 | 0.886 | 0.857 | 0.83 | 0.763 | 0.386 | 0.398 | 0.401 | 0.371 | 0.425 |
| NCI-H1437 | 0.875 | 0.795 | 0.767 | 0.738 | 0.621 | 0.421 | 0.51 | 0.411 | 0.403 | 0.361 | 0.913 | 0.89 | 0.836 | 0.804 | 0.661 | 0.557 | 0.282 | 0.299 | 0.29 | 0.293 |
| NCI-H1650 | 0.761 | 0.879 | 0.828 | 0.85 | 0.868 | 0.46 | 0.424 | 0.416 | 0.445 | 0.482 | 1.2 | 0.824 | 1.06 | 1.2 | 0.876 | 0.36 | 0.372 | 0.392 | 0.417 | 0.46 |
| NCI-H1651 | 0.749 | 0.71 | 0.691 | 0.663 | 0.645 | 0.616 | 0.542 | 0.383 | 0.485 | 0.366 | 0.555 | 0.581 | 0.576 | 0.557 | 0.399 | 0.284 | 0.297 | 0.265 | 0.4 | 0.255 |
| NCI-H1666 | 0.952 | 0.858 | 0.853 | 0.886 | 0.898 | 0.571 | 0.625 | 0.559 | 0.668 | 0.527 | 0.766 | 0.687 | 0.508 | 0.559 | 0.42 | 0.555 | 0.575 | 0.577 | 0.539 | 0.617 |
| NCI-H1734 | 0.648 | 0.692 | 0.602 | 0.615 | 0.742 | 0.263 | 0.234 | 0.223 | 0.235 | 0.248 | 0.455 | 0.519 | 0.447 | 0.441 | 0.608 | 0.306 | 0.324 | 0.31 | 0.35 | 0.249 |
| NCI-H1755 | 0.919 | 0.865 | 0.749 | 0.819 | 0.816 | 0.594 | 0.488 | 0.538 | 0.525 | 0.425 | 0.75 | 0.624 | 0.599 | 0.646 | 0.513 | 0.583 | 0.639 | 0.547 | 0.487 | 0.476 |
| NCI-H1793 | 0.435 | 0.305 | 0.351 | 0.376 | 0.299 | 0.253 | 0.197 | 0.234 | 0.203 | 0.188 | 0.285 | 0.165 | 0.247 | 0.258 | 0.184 | 0.294 | 0.242 | 0.313 | 0.29 | 0.329 |
| NCI-H1915 | 0.955 | 0.863 | 0.82 | 0.875 | 0.866 | 0.514 | 0.46 | 0.42 | 0.432 | 0.418 | 0.782 | 0.774 | 0.737 | 0.72 | 0.749 | 0.384 | 0.372 | 0.349 | 0.432 | 0.34 |
| NCI-H1944 | 0.636 | 0.687 | 0.575 | 0.789 | 0.626 | 0.215 | 0.236 | 0.205 | 0.224 | 0.185 | 0.697 | 0.668 | 0.555 | 0.628 | 0.571 | 0.183 | 0.19 | 0.208 | 0.222 | 0.165 |
| NCI-H1975 | 0.73 | 0.798 | 0.793 | 0.734 | 0.677 | 0.658 | 0.62 | 0.528 | 0.64 | 0.466 | 1.01 | 0.794 | 0.802 | 0.798 | 0.606 | 0.378 | 0.383 | 0.367 | 0.323 | 0.387 |

— the supplement of paper PMC10307832
